According to PubChem BioAssay AID1963971 (Molecular Pharmacology Branch, DTP, NCI, 2024):
Values joined by “and” are separate entries in the source; they are usually repeats but may differ in a detail not shown here. Equal values may be shown once.

Tested on: 953936-095-R-J2-PDC spheroids with HUVEC/MSC, viability
Test: Anticancer human tumor 953936-095-R-J2-PDC patient-derived cervical squamous cell carcinoma cell line growth inhibition [PI3K]
Details: for viability, T/C: stronger effect = lower value
Summary of the method: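 Tumor cells were combined with HUVEC and MSCs into spheroids, then dosed with PI3K-inhibitor combinations over half-log ranges capped near clinical Cmax or 10 microM.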

[1] = curve of first compound, second compound 0.0316 µM
[2] = curve of first compound, second compound 0.1 µM
[3] = curve of first compound, second compound 0.316 µM
[4] = curve of first compound, second compound 1 µM
[5] = second compound 0.0316 µM, first compound 0.0316 µM
[6] = second compound 0.0316 µM, first compound 0.1 µM
[7] = second compound 0.0316 µM, first compound 0.316 µM
[8] = second compound 0.0316 µM, first compound 1 µM
[9] = second compound 0.1 µM, first compound 0.0316 µM
[10] = second compound 0.1 µM, first compound 0.1 µM
[11] = second compound 0.1 µM, first compound 0.316 µM
[12] = second compound 0.1 µM, first compound 1 µM
[13] = second compound 0.316 µM, first compound 0.0316 µM
[14] = second compound 0.316 µM, first compound 0.1 µM
[15] = second compound 0.316 µM, first compound 0.316 µM
[16] = second compound 0.316 µM, first compound 1 µM
[17] = second compound 1 µM, first compound 0.0316 µM
[18] = second compound 1 µM, first compound 0.1 µM
[19] = second compound 1 µM, first compound 0.316 µM
[20] = second compound 1 µM, first compound 1 µM
[21] = curve of first compound, second compound 3.16 µM
[22] = curve of first compound, second compound 10 µM
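Also: spheroids exposed to compounds for seven days before read-out.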

Compound `CCN1CCN(Cc2ccc(Nc3ncc(F)c(-c4cc(F)c5nc(C)n(C(C)C)c5c4)n3)nc2)CC1` + CC(Nc1ccc2c(c1)OCCn1cc(N3C(=O)OCC3C(F)F)nc1-2)C(N)=O has an IC50 (curve of first compound, second compound 0.00316 µM) of over 1000 nM, an IC50 (curve of first compound, second compound 0.01 µM) of over 1000 nM and an IC50 [1] of over 1000 nM. It also gave an IC50 [2] of 64.4 nM, an IC50 [3] of under 3.16 nM and an IC50 [4] of under 3.16 nM. For the same compound, the viability, T/C (second compound 0.00316 µM, first compound 0.00316 µM) was 102%, the viability, T/C (second compound 0.00316 µM, first compound 0.01 µM) was 98.5% and the viability, T/C (second compound 0.00316 µM, first compound 0.0316 µM) was 94.6%. For the same compound, the viability, T/C (second compound 0.00316 µM, first compound 0.1 µM) was 96.6%, the viability, T/C (second compound 0.00316 µM, first compound 0.316 µM) was 89.8% and the viability, T/C (second compound 0.00316 µM, first compound 1 µM) was 80.7%. For the same compound, the viability, T/C (second compound 0.01 µM, first compound 0.00316 µM) was 93%, the viability, T/C (second compound 0.01 µM, first compound 0.01 µM) was 104% and the viability, T/C (second compound 0.01 µM, first compound 0.0316 µM) was 94.2%. It also gave a viability, T/C (second compound 0.01 µM, first compound 0.1 µM) of 83.3%, a viability, T/C (second compound 0.01 µM, first compound 0.316 µM) of 80% and a viability, T/C (second compound 0.01 µM, first compound 1 µM) of 79.3%. The viability, T/C (second compound 0.0316 µM, first compound 0.00316 µM) was 73%, the viability, T/C (second compound 0.0316 µM, first compound 0.01 µM) was 79.7% and the viability, T/C [5] was 72.5%. It also gave a viability, T/C [6] of 75.8%, a viability, T/C [7] of 63.8% and a viability, T/C [8] of 72.2%. The viability, T/C (second compound 0.1 µM, first compound 0.00316 µM) was 58.4%, the viability, T/C (second compound 0.1 µM, first compound 0.01 µM) was 53.8% and the viability, T/C [9] was 53.5%. It also gave a viability, T/C [10] of 47.9%, a viability, T/C [11] of 45.8% and a viability, T/C [12] of 48.5%. For the same compound, the viability, T/C (second compound 0.316 µM, first compound 0.00316 µM) was 34.8%, the viability, T/C (second compound 0.316 µM, first compound 0.01 µM) was 36% and the viability, T/C [13] was 31.1%. The viability, T/C [14] was 32.3%, the viability, T/C [15] was 27.6% and the viability, T/C [16] was 29.4%. It also gave a viability, T/C (second compound 1 µM, first compound 0.00316 µM) of 22%, a viability, T/C (second compound 1 µM, first compound 0.01 µM) of 21.5% and a viability, T/C [17] of 22.7%. For the same compound, the viability, T/C [18] was 18.8%, the viability, T/C [19] was 18.4% and the viability, T/C [20] was 24.7%.
`CC(Nc1ccc2c(c1)OCCn1cc(N3C(=O)OCC3C(F)F)nc1-2)C(N)=O` (centres undefined) was tested, and the viability, T/C (compound 0.00316 µM) was 104% [middle of 8 runs], the viability, T/C (compound 0.01 µM) was 92.8% [middle of 8 runs] and the viability, T/C (compound 0.0316 µM) was 75.9% [middle of 8 runs]. The viability, T/C (compound 0.1 µM) was 56.1% [middle of 8 runs], the viability, T/C (compound 0.316 µM) was 36.3% [middle of 8 runs] and the viability, T/C (compound 1 µM) was 23.6% [middle of 8 runs]. For the same compound, the IC50 (compound alone, run of 06/12/2023) was 140 nM [middle of 7 runs].
`Cn1cnc2c(F)c(Nc3ccc(Br)cc3Cl)c(C(=O)NOCCO)cc21` + CC(Nc1ncnc2nc[nH]c12)c1cc2cccc(Cl)c2c(=O)n1-c1ccccc1 was tested, and the IC50 [1] was 2090 nM, the IC50 [2] was 956 nM and the IC50 [3] was 1160 nM. For the same compound, the IC50 [4] was 732 nM, the IC50 [21] was 366 nM and the IC50 [22] was under 9.49 nM. For the same compound, the viability, T/C (second compound 0.0316 µM, first compound 0.00949 µM) was 79.1%, the viability, T/C (second compound 0.0316 µM, first compound 0.03 µM) was 78.9% and the viability, T/C (second compound 0.0316 µM, first compound 0.0949 µM) was 69.7%. The viability, T/C (second compound 0.0316 µM, first compound 0.3 µM) was 67.6%, the viability, T/C (second compound 0.0316 µM, first compound 0.949 µM) was 57% and the viability, T/C (second compound 0.0316 µM, first compound 3 µM) was 46.6%. For the same compound, the viability, T/C (second compound 0.1 µM, first compound 0.00949 µM) was 90.2%, the viability, T/C (second compound 0.1 µM, first compound 0.03 µM) was 86.3% and the viability, T/C (second compound 0.1 µM, first compound 0.0949 µM) was 77.7%. It also gave a viability, T/C (second compound 0.1 µM, first compound 0.3 µM) of 57.6%, a viability, T/C (second compound 0.1 µM, first compound 0.949 µM) of 54.7% and a viability, T/C (second compound 0.1 µM, first compound 3 µM) of 39.5%. For the same compound, the viability, T/C (second compound 0.316 µM, first compound 0.00949 µM) was 90.2%, the viability, T/C (second compound 0.316 µM, first compound 0.03 µM) was 68.8% and the viability, T/C (second compound 0.316 µM, first compound 0.0949 µM) was 74.2%. For the same compound, the viability, T/C (second compound 0.316 µM, first compound 0.3 µM) was 68.2%, the viability, T/C (second compound 0.316 µM, first compound 0.949 µM) was 53.1% and the viability, T/C (second compound 0.316 µM, first compound 3 µM) was 36%. For the same compound, the viability, T/C (second compound 1 µM, first compound 0.00949 µM) was 85.5%, the viability, T/C (second compound 1 µM, first compound 0.03 µM) was 77.3% and the viability, T/C (second compound 1 µM, first compound 0.0949 µM) was 65%. It also gave a viability, T/C (second compound 1 µM, first compound 0.3 µM) of 58.8%, a viability, T/C (second compound 1 µM, first compound 0.949 µM) of 48.1% and a viability, T/C (second compound 1 µM, first compound 3 µM) of 38.6%. It also gave a viability, T/C (second compound 3.16 µM, first compound 0.00949 µM) of 76.4%, a viability, T/C (second compound 3.16 µM, first compound 0.03 µM) of 60.5% and a viability, T/C (second compound 3.16 µM, first compound 0.0949 µM) of 60.4%. It also gave a viability, T/C (second compound 3.16 µM, first compound 0.3 µM) of 54%, a viability, T/C (second compound 3.16 µM, first compound 0.949 µM) of 42.5% and a viability, T/C (second compound 3.16 µM, first compound 3 µM) of 33.4%. The viability, T/C (second compound 10 µM, first compound 0.00949 µM) was 47.5%, the viability, T/C (second compound 10 µM, first compound 0.03 µM) was 44.4% and the viability, T/C (second compound 10 µM, first compound 0.0949 µM) was 38.8%. It also gave a viability, T/C (second compound 10 µM, first compound 0.3 µM) of 30.5%, a viability, T/C (second compound 10 µM, first compound 0.949 µM) of 19.5% and a viability, T/C (second compound 10 µM, first compound 3 µM) of 14.8%.
In the case of `C=CC(=O)N1CCN(c2nc(=O)n(-c3c(C)ccnc3C(C)C)c3nc(-c4c(O)cccc4F)c(F)cc23)C(C)C1` (centres undefined), the viability, T/C (compound 0.0316 µM) is reported as 93.6% [middle of 4 runs], the viability, T/C (compound 0.1 µM) is reported as 100% (2×) and 105% and 96.7% and the viability, T/C (compound 0.316 µM) is reported as 108% [middle of 4 runs]. For the same compound, the viability, T/C (compound 1 µM) was 121% [middle of 4 runs], the viability, T/C (compound 10 µM) was 118% (2×) and 112% and 127% and the IC50 (curve of compound) was over 10000 nM.
In the case of `C=CC(=O)N1CCN(c2nc(=O)n(-c3c(C)ccnc3C(C)C)c3nc(-c4c(O)cccc4F)c(F)cc23)C(C)C1` (centres undefined) + CC(Nc1ncnc2nc[nH]c12)c1cc2cccc(Cl)c2c(=O)n1-c1ccccc1, the IC50 [1] is reported as over 10000 nM, the IC50 [2] is reported as over 10000 nM and the IC50 [3] is reported as over 10000 nM. It also gave an IC50 [4] of over 10000 nM, an IC50 [21] of over 10000 nM and an IC50 [22] of over 10000 nM. The viability, T/C [5] was 92.8%, the viability, T/C [6] was 112% and the viability, T/C [7] was 121%. The viability, T/C [8] was 119%, the viability, T/C (second compound 0.0316 µM, first compound 3.16 µM) was 118% and the viability, T/C (second compound 0.0316 µM, first compound 10 µM) was 129%. For the same compound, the viability, T/C [9] was 104%, the viability, T/C [10] was 108% and the viability, T/C [11] was 110%. The viability, T/C [12] was 122%, the viability, T/C (second compound 0.1 µM, first compound 3.16 µM) was 132% and the viability, T/C (second compound 0.1 µM, first compound 10 µM) was 111%. It also gave a viability, T/C [13] of 94.2%, a viability, T/C [14] of 106% and a viability, T/C [15] of 111%. For the same compound, the viability, T/C [16] was 118%, the viability, T/C (second compound 0.316 µM, first compound 3.16 µM) was 113% and the viability, T/C (second compound 0.316 µM, first compound 10 µM) was 128%. For the same compound, the viability, T/C [17] was 91.1%, the viability, T/C [18] was 97.7% and the viability, T/C [19] was 99%. The viability, T/C [20] was 118%, the viability, T/C (second compound 1 µM, first compound 3.16 µM) was 110% and the viability, T/C (second compound 1 µM, first compound 10 µM) was 113%. The viability, T/C (second compound 3.16 µM, first compound 0.0316 µM) was 85%, the viability, T/C (second compound 3.16 µM, first compound 0.1 µM) was 79.2% and the viability, T/C (second compound 3.16 µM, first compound 0.316 µM) was 79.7%. For the same compound, the viability, T/C (second compound 3.16 µM, first compound 1 µM) was 88.1%, the viability, T/C (second compound 3.16 µM, first compound 3.16 µM) was 107% and the viability, T/C (second compound 3.16 µM, first compound 10 µM) was 105%. For the same compound, the viability, T/C (second compound 10 µM, first compound 0.0316 µM) was 63.7%, the viability, T/C (second compound 10 µM, first compound 0.1 µM) was 67% and the viability, T/C (second compound 10 µM, first compound 0.316 µM) was 62.3%. The viability, T/C (second compound 10 µM, first compound 1 µM) was 82.6%, the viability, T/C (second compound 10 µM, first compound 3.16 µM) was 85.3% and the viability, T/C (second compound 10 µM, first compound 10 µM) was 81%.
